Reference: patent US9839708B2, “Method for treating used absorbent article” (Unicharm Corporation, priority 2012, dated 2017)

Key:
Staphylococcus aureus = experiment: Evaluation of bactericidal function (MIC / minimum bactericidal concentration); assay type: cell-based; design: key: −: exhibited effects of bactericidal action; +: with the exception of the results of Comparative Examples 1 and 2; details: at the concentration used in the example; absence of growth 24 hours later
Method: (§1) Minimum inhibitory concentration (MIC) of the acidic electrolyzed water was measured based on the standard test method of the Japanese Society of Chemotherapy followed by confirming the absence of growth 24 hours later to evaluate the minimum bactericidal concentration and determine if bactericidal effects are present at the concentration used in the example. Minimum inhibitory concentrations (MIC) of the alkaline electrolyzed water and acidic electrolyzed water were respectively measured based on the standard test method of the Japanese Society of Chemotherapy followed by confirming the absence of growth 24 hours later to evaluate the minimum bactericidal concentration and determine if bactericidal effects are present at the concentration used in Example 2-2. Minimum inhibitory concentrations (MIC) of the acidic electrolyzed water and alkaline electrolyzed water were respectively measured based on the standard test method of the Japanese Society of Chemotherapy followed by confirming the absence of growth 24 hours later to evaluate the minimum bactericidal concentration and determine if bactericidal effects are present at the concentration used in Example 3-2. Minimum inhibitory concentration (MIC) of the tap water was measured based on the standard test method of the Japanese Society of Chemotherapy followed by confirming the absence of growth 24 hours later to evaluate the minimum bactericidal concentration and determine if bactericidal effects are present at the concentration used in the example. Minimum inhibitory concentrations (MIC) of the alkaline electrolyzed water was measured based on the standard test method of the Japanese Society of Chemotherapy followed by confirming the absence of growth 24 hours later to evaluate the minimum bactericidal concentration and determine if bactericidal effects are present at the concentration used in Comparative Example 2-2. Minimum inhibitory concentration (MIC) of the 250 ppm sodium hypochlorite was measured based on the standard test method of the Japanese Society of Chemotherapy followed by confirming the absence of growth 24 hours later to evaluate the minimum bactericidal concentration and determine if bactericidal effects are present at the concentration used in Comparative Example 3-2. Minimum inhibitory concentration (MIC) of the 500 ppm sodium hypochlorite was measured based on the standard test method of the Japanese Society of Chemotherapy followed by confirming the absence of growth 24 hours later to evaluate the minimum bactericidal concentration and determine if bactericidal effects are present at the concentration used in Comparative Example 4-2. Minimum inhibitory concentration (MIC) of the 1000 ppm sodium hypochlorite was measured based on the standard test method of the Japanese Society of Chemotherapy followed by confirming the absence of growth 24 hours later to evaluate the minimum bactericidal concentration and determine if bactericidal effects are present at the concentration used in Comparative Example 4-2.

Escherichia coli = experiment: as above; assay type: cell-based; design: key: −: exhibited effects of bactericidal action; +: with the exception of the results of Comparative Examples 1 and 2; details: at the concentration used in the example; absence of growth 24 hours later
Method: as §1

[1] = Residual chlorine concentration of recycled pulp (JIS K 0102 33.2); assay type: physicochemical; details: 5.00 g eluted into 100 ml, criterion Less than 1 ppm
Method: (§2) Eight commercially available disposable diapers (Moony M Size, Unicharm Corp.) that had adsorbed 200 ml of physiological saline were placed in a twin tub compact washing machine (Harebare AST-01, Alumis Co., Ltd.). 80 g of CaO (Wako Pure Chemical Industries, Ltd.) were placed in the washing tub followed by the addition of 6.5 L of acidic electrolyzed water (pH 3, generated with the ESS-ZERO Electrolyzed Water Sanitation System manufactured by Tech Corp.). After washing for 15 minutes, the liquid inside the washing tub was discharged followed by newly adding 6.5 L of acidic electrolyzed water (pH 3, formed with the ESS-ZERO Electrolyzed Water Sanitation System manufactured by Tech Corp.). After washing for 15 minutes, only the pulp that floated in the liquid in the washing tub was skimmed off followed by placing in a mesh pouch (measuring 25 cm on a side, N-No. 250HD, NBC Meshtec Inc.) and dehydrating for 5 minutes in the spin tub (dehydrator). The recycled pulp was rinsed for 15 minutes with running water (tap water) while still in the mesh pouch followed by again dehydrating for 5 minutes in the spin tub (dehydrator). The pulp was then dried for 24 hours with a hot air dryer at 105° C. Recycled pulp was obtained according to the aforementioned method.
5.00 g of pulp dried in the same manner as described above were eluted into 100 ml of physiological saline followed by measurement of the chlorine concentration thereof (JIS K 0102 33.2).
(§3) Eight commercially available disposable diapers (Moony M Size, Unicharm Corp.) that had adsorbed 200 ml of physiological saline were placed in a twin tub compact washing machine (Harebare AST-01, Alumis Co., Ltd.). 80 g of CaO (Wako Pure Chemical Industries, Ltd.) were placed in the washing tub followed by the addition of 6.5 L of alkaline electrolyzed water (pH 12, generated with the ESS-ZERO Electrolyzed Water Sanitation System manufactured by Tech Corp.). […]

[2] = Evaluation of pH of recycled pulp; assay type: physicochemical; details: 1.00 g dried pulp in 10 ml physiological saline; criterion pH 3.1-9.8
Method: as §2
1.00 g of the dried pulp was weighed out into a beaker followed by the addition of 10 ml of physiological saline. After gently stirring with a glass rod, the pulp was allowed to stand undisturbed for 10 minutes followed by measurement of the liquid inside the beaker with a pH meter (AS-212, As One Corp.).
as §3

Row | Structure (SMILES) | Bactericidal Effect S. aureus (Staphylococcus aureus) | Bactericidal Effect E. coli (Escherichia coli) | Residual Chlorine ppm [1] | pH of Recycled Pulp [2]
1 | OCl [compound 5, sodium hypochlorite] | − | − | 1 ppm | 12.0
2 | [Na+].[O-]Cl [compound 4, sodium hypochlorite] | − | − | 1 ppm | 12.2
3 | OCl [compound 3, sodium hypochlorite] | − | − | 1 ppm | 12.3
